The values that follow come from article PMC9497102, “Thiosemicarbazone Derivatives Developed to Overcome COTI-2 Resistance” (Cancers, 2022).

What is called IC50 is the concentration at which inhibition is half-maximal.

One data set deals with SW480/Tria cells. Put plainly: MTT viability assay, 72 h. The class given is cell-based, human. Particulars: for IC50: Homo sapiens, SW480, 72 h, MTT; for Relative Resistance SW480/Tria: IC50 of resistant subline divided by IC50 of parental SW480. Here is the method: (§1) In vitro tests were performed with human colorectal cancer SW480 cells (purchased from the American Type Culture Collection, Manassas, VA, USA), SW480/Tria, and the SW480/Coti cells, which are previously established sublines that are resistant to Triapine and COTI-2 [16], respectively. Additionally, small-cell lung carcinoma GLC-4 and its subline GLC-4/adr, which is a doxorubicin-resistant subline overexpressing ABCC1 (purchased from Dr. […], Groningen, The Netherlands), were used. All cells were maintained in a humidified 5% CO2 incubator at 37 °C and grown in minimal essential medium or RPMI-1640, respectively, supplemented with 10% fetal bovine serum (FBS). In order to maintain the resistant phenotype of GLC-4/adr cells, they were selected with doxorubicin (1152 nM) once a month. All cell lines were tested for mycoplasma contamination. For the cytotoxicity, cell viability, and proliferation studies, the 3-(4,5-dimethylthiazol-2-yl)-2,5-diphenyltetrazolium bromide (MTT) assay was utilized. Cells were seeded in 96-well plates at a density of 2 × 10^4 cells/well, with the exception of SW480/Tria, which was used at a density of 3 × 10^4 cells/well. After 24 h of recovery, cells were treated with the indicated concentration of drugs. For the drug combination experiments, verapamil and cyclosporine A (CSA) were used as ABCC1 modulators, and tetrathiomolybdate (TTM) was used as a copper chelator. The TSCs were dissolved in DMSO followed by subsequent dilutions in the medium in order to maintain a final DMSO concentration of <1%. After 72 h, the treatment solution was removed and replaced with 100 μL of MTT solution (EZ4U, Biomedica, Vienna, Austria), which was diluted 1:10 in the growth medium. A TECAN Infinite 200 Pro plate reader was used to measure the absorbance of the solution after 2-3 h incubation at 5% CO2 in an incubator at 37 °C. The anticancer activity was determined with GraphPad Prism software and indicated as IC50 values (half maximum inhibitory concentration).
(Tetrazolium dyes change colour on reduction, which living cells bring about.)

In data set [1] the test system is SW480 cells. In words: MTT viability assay, 72 h. The class given is cell-based, human. Particulars: for IC50: Homo sapiens, SW480, MTT; for enhancement of cytotoxicity by copper complexation: copper complex vs. ligand. As for the experimental part: as §1
The test system of data set [2] is SW480 cells. Put plainly: Mitotic nuclei by DAPI staining. It counts as cell-based, human. As to conditions: 24 h. Here is the method:
In order to detect mitotic nuclei, fixed cells were stained with DAPI. SW480 and SW480/Coti cells were seeded at a density of 2 × 10^5 cells per well in 6-well plates and left to recover for 24 h. This was followed by drug treatment at the indicated concentrations for 24 h. Then, cells were collected and spun on slides by centrifugation with a Thermo Scientific Cytospin 4 (400 rpm, 5 min at 4 °C). The slides were dried, and the cells were fixed with a methanol/acetone (1:1) mixture at −20 °C and stained with a solution containing DAPI (1 µg/mL). A final washing step with phosphate-buffered saline (PBS) was performed, followed by covering the slides with vectashield (H-100, Vector Laboratories, Inc., Newark, CA, USA) and coverslips. Mitotic nuclei were counted with Image J in three different areas per slide from three independent experiments.

Data set [3] can be described thus: Iron(III) complex formation, UV-vis spectrophotometric titrations. The class given is physicochemical. As to conditions: for pFe(III)*: Fe(III) hydroxido species also considered as unbound metal, cFe = 1 μM; for pFe(III)* / pFe(III): cL = 10 μM, pH = 7.40; for pFe(III): –log[free Fe(III)] calculated at cFe = 1 μM. As for the experimental part:
The UV-vis spectra were recorded using an Agilent Cary 8454 diode array spectrophotometer in the 200 to 950 nm window, and the path length was varied between 1 and 5 cm, depending on the solubility (thus the applicable concentration). For the spectrophotometric titrations, the same instruments (Metrohm 665 Dosimat burette, Orion 710A pH-meter, Metrohm combined pH glass electrode) and experimental setup (ionic strength: 0.10 M (KCl); titrant: 0.10 M carbonate-free KOH solution in 30% (v/v) DMSO/H2O; samples: prepared in 30% (v/v) DMSO/H2O; calibration: method of Irving et al.; pH range: 1.0 to 13.5; and sample volume: 10 cm^3) were used as in our previous work. Argon overpressure was used for the Fe(II)-containing samples when the Fe(II) stock solution was added to the samples in tightly closed titration vessels, which were previously completely deoxygenated (for 20 min). Measurements were taken with ligands (10–80 μM, depending on solubility) in the presence of 1, 0.5, and 0.3 equiv. of Cu(II), Fe(II), and Fe(III) ions. Equilibrium constants, such as the proton dissociation constants (pKa) of the ligands, the overall stability constants (logβ) of the metal complexes, and the UV-vis spectra of the individual ligand or complex species were computed using the program PSEQUAD [18], as was the case in our previous works.

Setting [4] is: T = 25.0 °C, I = 0.10 M (KCl), 30% (v/v) DMSO/H2O.

Consider `CN(C)C(=S)NN=C1CCCc2cccnc21` (mixture of isomers) [COTI-NMe2, 2-(6,7-Dihydroquinolin-8(5H)-ylidene)-N^4,N^4-dimethylhydrazine-1-carbothioamide], for which, in the data set on SW480/Tria cells, the half-maximal inhibitory concentration (IC50) was determined as 40 ± 20 nM and the “Relative Resistance SW480/Tria” value is on record as 1.0 ^n.s. The IC50 in the data set with SW480 cells [1] (72 h) is 40 ± 10 nM. The “lower IC50 value than the other tested COTI-2 derivatives” value in the data set on SW480 cells [1] (SW480 cells) was ~ 10 fold. The “lower IC50 value than COTI-2” value in the data set on SW480 cells [1] (SW480 cells, 72 h) was 11 fold. Further, the “effect on mitotic cell fraction” value with SW480 cells [2] was “(complete) loss of the mitotic cell fraction”. In addition, in data set [3], the “pFe(III)*” value was 11.1 and the “pFe(III)” value is recorded as 19.2. Besides, in data set [3] (setting [4]), the “logβ [Fe(III)L2]^+” value stood at 32.77 ± 0.03 and the “logβ [Fe(III)L]^2+” value was 17.25 ± 0.02.
In the case of `S=C(N/N=C1\CCCc2cccnc21)N1CCN(c2ccccn2)CC1` [COTI-2, 4-(pyridine-2-yl)-N-([(8E)-5,6,7,8-tetrahydroquinolin-8-ylidene]amino)piperazine-1-carbothioamide], the “Relative Resistance SW480/Tria” value in the data set on SW480/Tria cells is listed as 1.1 ^n.s. The IC50 with SW480 cells [1] (72 h) was found to be 370 ± 170 nM. Also, in the data set with SW480 cells [1] (SW480 cells, 72 h), the “enhancement of cytotoxicity by copper complexation” value is recorded as 7–8 fold. Moreover, the “effect on mitotic cell fraction” value in the data set on SW480 cells [2] is on record as “(complete) loss of the mitotic cell fraction”. For the same compound, in data set [3], the “pFe(III)*” value is given as 10.6 and the “pFe(III)” value was 18.6. Moreover, in data set [3] (setting [4]), the “logβ [Fe(III)L2]^+” value is listed as 29.98 ± 0.06, the “logβ [Fe(III)LH]^3+” value stood at 21.16 ± 0.03 and the “logβ [Fe(III)L]^2+” value turned out to be 18.02 ± 0.03. Besides, the “free ligand in the presence of iron(III)” value in data set [3] (calculated distribution, 1 µM COTI-2, 2:1 ligand:iron(III), pH 7.4) was 10–20%.
Turning to `CN(C(=S)N/N=C1\CCCc2cccnc21)C1CCCCC1` [COTI-NMeCy, N-Cyclohexyl-2-(6,7-dihydroquinolin-8(5H)-ylidene)-N^4-methylhydrazine-1-carbothioamide], in the data set with SW480/Tria cells, the 50% inhibitory concentration (IC50) stood at 710 ± 170 nM and the “Relative Resistance SW480/Tria” value is on record as 1.1 ^n.s. In addition, the IC50 in the data set with SW480 cells [1] (72 h) is 640 ± 100 nM. The “enhancement of cytotoxicity by copper complexation” value in the data set on SW480 cells [1] (SW480 cells, 72 h) is recorded as 7–8 fold. Besides, in data set [3], the “pFe(III)*” value is recorded as 9.9 and the “pFe(III)” value was 18.0. In data set [3] (setting [4]), the “logβ [Fe(III)L2]^+” value is recorded as 32.20 ± 0.03 and the “logβ [Fe(III)L]^2+” value came to 17.06 ± 0.02.
